According to publication PMC6825211 (Nature Communications, 2019):
Values joined by “and” are separate entries in the source; they are usually repeats but may differ in a detail not shown here. Equal entries are not always repeated.

How the values were obtained:
[1] = Pharmacokinetic study, single i.p. dose; details: for AUC(0-inf): AUCINF
MST2 = MST2 (Homo sapiens, UniProt Q13188); test: biochemical; details: read-out: % inhibition by neratinib
MAPK1 = MAPK1 (Homo sapiens, UniProt P28482); test: Nanosyn kinase profiling, mobility shift assay; details: read-out: % inhibition by neratinib
CDK2 = CDK2 (Homo sapiens, UniProt P24941); test: Nanosyn kinase profiling, mobility shift assay; details: read-out: % inhibition by neratinib
CSK = CSK (Homo sapiens, UniProt P41240); test: Nanosyn kinase profiling, mobility shift assay; details: read-out: % inhibition by neratinib
250 kinases = test: Nanosyn panel of 250 biochemical kinase assays; details: 3 µM, of 250 kinases
Procedure: inhibition was determined for each assay.

[2] = tested on: obese diabetic Lepr db/db mice; test: db/db model: insulin secretion during ipGTT; type: in vivo, mouse; design: GSIS: unit not given here
Text: (§1) Data are representative of six mice per group (n = 6 for (a–f)). g–j Mice were killed at day 31. g β-cell mass (given as percentage of the whole pancreatic section from ten sections spanning the width of the pancreas; n = 5 mice/group) and quantitative analyses from triple stainings for (h) TUNEL, (i) Ki67, (j) pHH3, and (k) nuclear PDX1 expression, insulin, and DAPI expressed as percentage of TUNEL-, Ki67-, pHH3-, or nuclear PDX1-positive β-cells ± SEM. An average number of 13667 (h), 5937 (i), 7108 (j), or 4330 (k) β-cells were counted from n = 3–5 (h, i, k) or n = 5–6 (j) mice/group.
For intraperitoneal glucose tolerance tests, mice were fasted 12 h overnight and injected i.p. with glucose (40%; B.Braun, Melsungen, Germany) at a dose of 1 g/kg body weight. Blood samples were obtained at time points 0, 15, 30, 60, 90, and 120 min for glucose measurements by using a Glucometer. For i.p. insulin tolerance tests, mice were injected with 0.75 U/kg body weight recombinant human insulin (Novolin, Novo Nordisk) after 4–5-h fasting, and glucose concentration was determined with the Glucometer. Insulin secretion was measured before (0 min) and after (15 and 30 min) i.p. injection of glucose (2 g/kg) and measured by using ultrasensitive mouse Elisa kit (ALPCO Diagnostics, Salem, NH).

[3] = clinical trials; cited from earlier work
SRC = SRC (Homo sapiens, UniProt P12931); test: Nanosyn kinase profiling, mobility shift assay; details: read-out: % inhibition by neratinib
DAPK1 = DAPK1 (Homo sapiens, UniProt P53355); test: Nanosyn kinase profiling, mobility shift assay; details: read-out: % inhibition by neratinib
[4] = tested on: obese diabetic Lepr db/db mice; test: db/db model: β-cell apoptosis (TUNEL); type: in vivo, mouse; details: for TUNEL%/ mouse: dbdb mice
Text: as §1
Mouse pancreases were dissected and fixed in 4% formaldehyde at 4 °C for 12 h before embedding in paraffin[62]. Two-four-micrometer sections were deparaffinized, rehydrated, and incubated overnight at 4 °C with anti-PDX-1 (Abcam; #47267), anti-Glut2 (Chemicon; #07-1402), anti-Ki67 (Dako; #M7249), anti-phospho-Histone H3 (Ser10; Merck #06-570), and anti-NKX6.1 (DSHB, University of Iowa #F55A12[66]) in combination with TSA (Invitrogen #T30955), or for 2 h at room temperature with anti-insulin (Dako; A0546) antibodies (all at a dilution of 1:100, except anti-PDX-1, which was diluted 1:400) followed by fluorescein isothiocyanate (FITC)- or Cy3-conjugated secondary antibodies (Jackson ImmunoResearch Laboratories, West Grove, PA). Slides were mounted with Vectashield with 4′6-diamidino-2-phenylindole (DAPI) (Vector Labs). β-cell apoptosis was analyzed by the terminal deoxynucleotidyl transferase-mediated dUTP nick-end labeling (TUNEL) technique according to the manufacturer’s instructions (In Situ Cell Death Detection Kit, TMR red; Roche) and double stained for insulin. Fluorescence was analyzed by using a Nikon MEA53200 (Nikon GmbH, Dusseldorf, Germany) microscope, and images were acquired by using NIS-Elements software (Nikon).

MLD–STZ C57BL/6J mice = test: MLD–STZ model: PDX1, NKX6.1, Glut2 immunostaining; type: in vivo, mouse
Procedure: Representative triple stainings for PDX1 (red, a), Glut2 (red, b), or NKX6.1 (red, c), insulin (green), and DAPI (blue) are shown from vehicle-, STZ-, and STZ/Nera-treated mice (n = 8, 4, 9 & 9 mice/group). Scale bar, 100 μm
Mouse pancreases were dissected and fixed in 4% formaldehyde at 4 °C for 12 h before embedding in paraffin[62]. […] Slides were mounted with Vectashield with 4′6-diamidino-2-phenylindole (DAPI) (Vector Labs). β-cell apoptosis was analyzed by the terminal deoxynucleotidyl transferase-mediated dUTP nick-end labeling (TUNEL) technique according to the manufacturer’s instructions (In Situ Cell Death Detection Kit, TMR red; Roche) and double stained for insulin. Fluorescence was analyzed by using a Nikon MEA53200 (Nikon GmbH, Dusseldorf, Germany) microscope, and images were acquired by using NIS-Elements software (Nikon).

[5] = 5 mg/kg IP, individual animals 1-3

Sequence of SRC (P12931 whole entry, species assumed): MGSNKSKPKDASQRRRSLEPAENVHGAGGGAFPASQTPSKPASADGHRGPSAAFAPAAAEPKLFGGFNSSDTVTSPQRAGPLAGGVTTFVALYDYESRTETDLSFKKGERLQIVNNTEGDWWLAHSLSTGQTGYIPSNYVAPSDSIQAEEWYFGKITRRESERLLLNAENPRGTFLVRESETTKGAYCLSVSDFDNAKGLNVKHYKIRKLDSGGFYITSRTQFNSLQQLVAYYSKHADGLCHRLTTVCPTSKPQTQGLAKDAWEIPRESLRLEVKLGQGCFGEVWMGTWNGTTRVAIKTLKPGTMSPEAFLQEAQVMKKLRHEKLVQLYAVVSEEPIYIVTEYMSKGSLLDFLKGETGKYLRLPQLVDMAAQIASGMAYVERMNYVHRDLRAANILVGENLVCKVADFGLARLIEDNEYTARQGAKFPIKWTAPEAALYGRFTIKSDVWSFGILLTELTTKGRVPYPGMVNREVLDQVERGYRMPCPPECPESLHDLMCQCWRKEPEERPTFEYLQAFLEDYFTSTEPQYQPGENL
Sequence of MST2 (Q13188 whole entry, species assumed): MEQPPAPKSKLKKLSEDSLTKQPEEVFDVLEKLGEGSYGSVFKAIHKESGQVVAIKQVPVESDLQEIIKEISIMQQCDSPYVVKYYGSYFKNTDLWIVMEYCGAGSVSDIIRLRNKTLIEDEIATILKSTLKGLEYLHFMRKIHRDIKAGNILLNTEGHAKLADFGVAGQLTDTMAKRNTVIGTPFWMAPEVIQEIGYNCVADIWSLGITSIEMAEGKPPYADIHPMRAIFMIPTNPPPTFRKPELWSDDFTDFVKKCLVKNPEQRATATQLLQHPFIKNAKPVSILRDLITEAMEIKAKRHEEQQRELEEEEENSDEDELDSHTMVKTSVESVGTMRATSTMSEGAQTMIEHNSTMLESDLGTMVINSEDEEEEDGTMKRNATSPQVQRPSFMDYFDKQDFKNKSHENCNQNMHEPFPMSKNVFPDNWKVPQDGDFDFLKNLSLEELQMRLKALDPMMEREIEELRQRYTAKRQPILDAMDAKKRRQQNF
Sequence of MAPK1 (P28482 whole entry): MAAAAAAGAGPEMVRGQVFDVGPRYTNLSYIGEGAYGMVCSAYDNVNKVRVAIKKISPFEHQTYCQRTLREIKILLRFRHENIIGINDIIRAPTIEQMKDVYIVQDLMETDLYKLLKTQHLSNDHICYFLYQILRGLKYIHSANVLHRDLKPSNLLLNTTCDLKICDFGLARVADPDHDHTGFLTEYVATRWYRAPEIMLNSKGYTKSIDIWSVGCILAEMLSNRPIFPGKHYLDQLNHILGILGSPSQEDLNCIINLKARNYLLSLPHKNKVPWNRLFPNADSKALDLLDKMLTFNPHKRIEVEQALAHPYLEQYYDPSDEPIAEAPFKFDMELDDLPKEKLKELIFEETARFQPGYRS
Sequence of DAPK1 (P53355 whole entry): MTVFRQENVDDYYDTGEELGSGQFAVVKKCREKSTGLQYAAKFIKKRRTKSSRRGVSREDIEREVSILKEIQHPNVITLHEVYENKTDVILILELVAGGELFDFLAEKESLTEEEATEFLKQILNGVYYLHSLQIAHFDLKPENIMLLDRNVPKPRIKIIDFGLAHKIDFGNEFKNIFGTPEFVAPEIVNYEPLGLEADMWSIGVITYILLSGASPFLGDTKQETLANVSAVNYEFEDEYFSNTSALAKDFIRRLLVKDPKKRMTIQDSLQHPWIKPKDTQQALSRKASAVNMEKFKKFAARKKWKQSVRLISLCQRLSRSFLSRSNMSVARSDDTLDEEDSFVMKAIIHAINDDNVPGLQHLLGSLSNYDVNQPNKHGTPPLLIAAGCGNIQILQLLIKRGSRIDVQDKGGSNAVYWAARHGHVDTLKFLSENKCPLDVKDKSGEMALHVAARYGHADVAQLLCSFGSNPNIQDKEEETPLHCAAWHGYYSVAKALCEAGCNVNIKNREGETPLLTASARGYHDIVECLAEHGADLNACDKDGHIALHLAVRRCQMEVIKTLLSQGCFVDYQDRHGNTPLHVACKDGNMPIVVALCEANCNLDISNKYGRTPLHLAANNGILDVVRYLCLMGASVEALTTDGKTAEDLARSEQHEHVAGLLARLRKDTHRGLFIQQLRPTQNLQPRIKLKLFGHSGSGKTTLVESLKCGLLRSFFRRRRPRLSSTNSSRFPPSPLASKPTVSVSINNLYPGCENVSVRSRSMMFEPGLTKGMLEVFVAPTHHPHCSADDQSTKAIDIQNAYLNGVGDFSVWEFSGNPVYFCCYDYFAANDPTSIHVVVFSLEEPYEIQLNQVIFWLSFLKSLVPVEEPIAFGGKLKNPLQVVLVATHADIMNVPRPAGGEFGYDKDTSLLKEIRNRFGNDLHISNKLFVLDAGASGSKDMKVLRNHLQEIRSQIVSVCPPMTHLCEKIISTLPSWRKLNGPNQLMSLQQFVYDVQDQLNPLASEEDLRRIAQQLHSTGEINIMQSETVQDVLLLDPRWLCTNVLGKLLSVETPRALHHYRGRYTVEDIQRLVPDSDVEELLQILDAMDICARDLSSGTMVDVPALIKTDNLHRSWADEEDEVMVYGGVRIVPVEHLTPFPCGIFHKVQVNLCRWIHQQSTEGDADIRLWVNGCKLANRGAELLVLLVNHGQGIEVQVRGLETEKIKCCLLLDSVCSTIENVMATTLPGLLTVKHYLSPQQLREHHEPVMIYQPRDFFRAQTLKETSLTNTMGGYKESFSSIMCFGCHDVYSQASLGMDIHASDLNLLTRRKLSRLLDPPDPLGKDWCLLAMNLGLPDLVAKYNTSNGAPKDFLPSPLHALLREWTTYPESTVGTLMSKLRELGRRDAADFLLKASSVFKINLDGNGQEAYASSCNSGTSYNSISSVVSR
Sequence of CSK (P41240 whole entry): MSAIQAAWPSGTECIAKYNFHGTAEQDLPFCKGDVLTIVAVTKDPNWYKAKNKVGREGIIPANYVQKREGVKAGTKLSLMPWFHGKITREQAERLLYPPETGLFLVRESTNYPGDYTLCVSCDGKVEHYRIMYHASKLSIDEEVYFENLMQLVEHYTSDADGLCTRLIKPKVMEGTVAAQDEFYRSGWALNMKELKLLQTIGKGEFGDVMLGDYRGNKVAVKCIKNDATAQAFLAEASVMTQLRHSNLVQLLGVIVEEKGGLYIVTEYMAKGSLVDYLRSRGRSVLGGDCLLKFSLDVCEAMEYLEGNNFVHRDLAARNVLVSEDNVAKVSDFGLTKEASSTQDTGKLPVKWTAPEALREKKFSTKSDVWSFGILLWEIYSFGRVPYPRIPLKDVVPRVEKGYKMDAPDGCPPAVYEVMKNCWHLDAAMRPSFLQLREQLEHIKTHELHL

Compound: CCOc1cc2ncc(C#N)c(Nc3ccc(OCc4ccccn4)c(Cl)c3)c2cc1NC(=O)/C=C/CN(C)C [neratinib]
- Cl ([1]; 5 mg/kg IP, AVERAGE n=3): 263.8 mL/min/kg
- VD ([1]; 5 mg/kg IP, AVERAGE n=3): 58.9 L/kg
- AUC0-24 [1, 5]: 1.9671 µM·h and 2.1252 µM·h
- AUCINF [1, 5]: 2.1537 µM·h and 2.2985 µM·h
- AUCLAST [1, 5]: 1.9671 µM·h and 2.1252 µM·h
- Cl [1, 5]: 253.1 mL/min/kg and 277.9 mL/min/kg and 260.4 mL/min/kg
- Cmax [1, 5]: 557 nM and 623 nM
- MRT [1, 5]: 2.3 h
- Tmax [1, 5]: 1.0 h
- VD [1, 5]: 86.9 L/kg and 46.7 L/kg and 43.1 L/kg
- t1/2 [1, 5]: 4.0 hr and 1.9 hr (2×)
- maximum concentration ([1]; 5 mg/kg single i.p. dose, plasma, fasted mice): 306 ng/mL
- AUC(0-t) ([1]; mouse, plasma, ip, 5 mg/kg, AUC0-24, 5 mg/kg IP, AVERAGE n=3): 1.9 µM·h
- AUC(0-t) ([1]; mouse, plasma, ip, 5 mg/kg, AUC0-24, 5 mg/kg IP, individual animals 1-3): 1.62 µM·h
- AUC(0-inf) ([1]; mouse, plasma, ip, 5 mg/kg, 5 mg/kg IP, AVERAGE n=3): 2.27 µM·h
- AUC(0-inf) ([1]; mouse, plasma, ip, 5 mg/kg, 5 mg/kg IP, individual animals 1-3): 2.36 µM·h
- AUC(0-t) ([1]; mouse, plasma, ip, 5 mg/kg, AUCLAST, 5 mg/kg IP, AVERAGE n=3): 1.9 µM·h
- AUC(0-t) ([1]; mouse, plasma, ip, 5 mg/kg, AUCLAST, 5 mg/kg IP, individual animals 1-3): 1.62 µM·h
- Cmax ([1]; mouse, plasma, ip, 5 mg/kg, Cmax, 5 mg/kg IP, AVERAGE n=3): 549 nM
- Cmax ([1]; mouse, plasma, ip, 5 mg/kg, Cmax, 5 mg/kg IP, individual animals 1-3): 469 nM
- MRT ([1]; mouse, plasma, ip, 5 mg/kg, MRT, 5 mg/kg IP, AVERAGE n=3): 2.4 h
- MRT ([1]; mouse, plasma, ip, 5 mg/kg, MRT, 5 mg/kg IP, individual animals 1-3): 2.7 h
- Tmax ([1]; mouse, plasma, ip, 5 mg/kg, Tmax, 5 mg/kg IP, AVERAGE n=3): 0.7 h
- Tmax ([1]; mouse, plasma, ip, 5 mg/kg, Tmax, 5 mg/kg IP, individual animals 1-3): 0.5 h
- half-life ([1]; mouse, plasma, ip, 5 mg/kg, t1/2, 5 mg/kg IP, AVERAGE n=3): 2.6 h
- Tmax ([1]; mouse, plasma, ip, 5 mg/kg, time of maximum concentration post dosing, 5 mg/kg single i.p. dose, average): 0.67 h
- inhibition at 10 µM (MST2): 97%
- inhibition at 10 µM (MAPK1): 12%
- inhibition at 10 µM (CDK2): 9%
- inhibition at 10 µM (CSK): 95%
- number of kinases with 50% of inhibition (250 kinases): 59
- insulin secretion ([2]; db/db): enhanced insulin secretion
- GSIS ([2]; time after glucose injection 0, MEAN): 7.868
- GSIS ([2]; time after glucose injection 0, individual mice): 7.6163 and 7.7481 and 3.303 and 9.154 and 8.9273 and 10.458
- GSIS ([2]; time after glucose injection 15, MEAN): 11.2434
- GSIS ([2]; time after glucose injection 15, individual mice): 17.086 and 7.6058 and 10.292 and 7.1842 and 8.1355 and 17.157
- most common neratinib-associated adverse events [3]: diarrhea, vomiting, and nausea
- inhibition at 10 µM (SRC): 73%
- inhibition at 10 µM (DAPK1): 4%
- β-cell apoptosis ([4]; db/db, day 31): significantly reduced β-cell apoptosis
- TUNEL%/ mouse ([4]; Mean): 0.5462%
- TUNEL%/ mouse ([4]; individual mice): 0.6553% and 0.4112% and 0.66% and 0.4585%
- β-cell Glut2 expression (MLD–STZ C57BL/6J mice; MLD–STZ mice): restored β-cell Glut2 expression
- loss of nuclear PDX1- and NKX6.1-positive cells and islet architecture in MLD–STZ mice (MLD–STZ C57BL/6J mice; mouse, in vivo): markedly attenuated
